This note sets out measurements from patent publication US9422332B2, “Azaheterocycles as BIR2 and/or BIR3 inhibitors” (Hoffmann-La Roche Inc., priority 2012, dated 2016).

The target in experiment [1] is BIR2 domain of XIAP (Homo sapiens (Human), UniProt P98170, C202A/C213G). The experiment can be described thus: TR-FRET assay for BIR2 (inhibition of binding of XIAP BIR2 domain to Peptide A). The conditions noted are these: 6x His-tagged BIR2 domain (aa 124-240 of XIAP), 20 nM Peptide A. On the procedure:
(§1) TR-FRET Assay for BIR2 and BIR3
(§2) The peptides were labeled with the fluorescent tags FITC or TAMRA and Kd values were determined by fluorescence polarization assay. […] The peptide sequence was derivatized with biotin to provide […]-(ε-biotin)-OH 1:2 TFA as the substrate for the TR-FRET assay.
The XIAP protein sequence was obtained from the SWISS-PROT protein sequence database and the BIR2 and BIR3 domains were derived from that. The sequence of the BIR2 domain used for the TR-FRET assay is
(§3) Time-resolved fluorescence resonance energy transfer (TR-FRET) signals were measured 1 hour later at room temperature. Test compound potency was assessed at 10 serially diluted concentrations. Percentage of inhibition at each concentration was determined to generate an IC50 value for each test compound.
(In general: In TR-FRET formats the signal depends on donor and acceptor labels being close together.)

Experiment [2] deals with BIR3 domain of XIAP (Homo sapiens (Human), UniProt P98170). Put plainly: TR-FRET assay for BIR3 (inhibition of binding of XIAP BIR3 domain to Peptide A). The conditions noted are these: 6x His-tagged BIR3 domain (aa 241-356 of XIAP), 20 nM Peptide A. On the procedure: as §1, §2
Sequence of BIR3 domain of XIAP (P98170 other isoform, or with tags, fused parts or gaps): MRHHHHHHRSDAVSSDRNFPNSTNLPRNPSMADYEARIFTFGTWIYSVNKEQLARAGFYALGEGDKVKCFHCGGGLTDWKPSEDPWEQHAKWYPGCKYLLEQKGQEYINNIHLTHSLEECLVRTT
The sequence of the BIR3 domain used for the TR-FRET assay is
as §3

Sequence of BIR2 domain of XIAP (P98170 other isoform, or with tags, fused parts or gaps, stated change not applied): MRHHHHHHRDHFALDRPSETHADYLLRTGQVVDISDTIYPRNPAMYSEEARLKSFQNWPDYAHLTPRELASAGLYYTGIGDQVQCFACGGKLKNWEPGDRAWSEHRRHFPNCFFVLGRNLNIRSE

For `CN[C@@H](C)C(=O)N[C@H](C(=O)N1CCc2ccc(F)cc2[C@@H]1C(=O)Nc1c(F)cccc1F)C(C)C` [Example 41, N-(2,6-difluorophenyl)-7-fluoro-2-((S)-3-methyl-2-((S)-2-(methylamino)propanamido)butanoyl)-1,2,3,4-tetrahydroisoquinoline-1-carboxamide], the 50% inhibitory concentration (IC50) – broadly, the concentration at which inhibition is half-maximal – in experiment [1] is 2.35 µM; in experiment [2] it was greater than 54.8 µM.
As for `CN[C@@H](C)C(=O)N[C@H](C(=O)N1CCc2ccc(F)cc2[C@H]1C(=O)Nc1c(F)cccc1F)C(C)C` [Example 42, N-(2,6-difluorophenyl)-7-fluoro-2-((S)-3-methyl-2-((S)-2-(methylamino)propanamido)butanoyl)-1,2,3,4-tetrahydroisoquinoline-1-carboxamide], the IC50 is 0.027 µM in experiment [1] and greater than 54.8 µM in experiment [2].
The corresponding values for `CN[C@@H](C)C(=O)N[C@H](C(=O)N1CCc2ccc(Cl)cc2[C@@H]1C(=O)Nc1c(F)cccc1F)C(C)C` [Example 44, 7-chloro-N-(2,6-difluorophenyl)-2-((S)-3-methyl-2-((S)-2-(methylamino)propanamido)butanoyl)-1,2,3,4-tetrahydroisoquinoline-1-carboxamide] are 4.71 µM and greater than 54.8 µM.
In the same order, the values of `CN[C@@H](C)C(=O)N[C@H](C(=O)N1CCc2ccc(Cl)cc2[C@H]1C(=O)Nc1c(F)cccc1F)C(C)C` [Example 45, 7-chloro-N-(2,6-difluorophenyl)-2-((S)-3-methyl-2-((S)-2-(methylamino)propanamido)butanoyl)-1,2,3,4-tetrahydroisoquinoline-1-carboxamide] are 0.047 µM and greater than 54.8 µM.
